Laboratory results from ChEMBL document CHEMBL5096208, “Installation of Pargyline, a LSD1 Inhibitor, in the HDAC Inhibitory Template Culminated in the Identification of a Tractable Antiprostate Cancer Agent” (J Med Chem, 2021).
Active and inactive are the calls of the source. The calls are words filed in the database; no cut-off is given here.

Key:
[1] = Metabolic stability in human hepatocyte assessed as parent compound remaining at 10 uM incubated for 120 mins by LC-MS/MS analysis; type: ADME, cell-based; conditions: hepatocytes, read-out: Stability
[2] = target: Lysine-specific histone demethylase 1A (Homo sapiens) (UniProt O60341); test: Inhibition of LSD1 (unknown origin) using […] as substrate at 1 uM incubated for 48 hrs followed by substrate addition and measured after 2 hrs by microplate reader analysis; conditions: time 50.0 hrs
[3] = Metabolic stability in human hepatocyte assessed as parent compound remaining at 10 uM by LC-MS/MS analysis; type: ADME, cell-based; conditions: hepatocytes, read-out: Stability
[4] = Metabolic stability in Beagle dog hepatocyte assessed as half life at 10 uM by LC-MS/MS analysis; type: ADME, cell-based, Canis lupus familiaris; conditions: hepatocytes
PC-3 [5] = test: Induction of cell death in LSD1 knockdown human PC-3 cells assessed as activation of procaspase-3 at 1.25 to 10 uM by Western blot analysis; type: functional, cell-based; conditions: dose 1.25-10 µM
Homo sapiens [6] = species on record: Homo sapiens; test: Selectivity ratio of IC50 for human HDAC7 to IC50 for human HDAC6
[7] = Metabolic stability in Sprague-Dawley rat hepatocyte assessed as parent compound remaining at 10 uM incubated for 240 mins by LC-MS/MS analysis; type: ADME, cell-based; conditions: hepatocytes, read-out: Stability
[8] = AUC (0 to infinity) in Sprague-Dawley rat at 25 mg/kg, po formulated using SMEDDS administered once via gavage measured upto 24 hrs post dose by UPLC-MS/MS analysis; type: ADME, organism-based; parameters: dose 25 mg/kg, time < 24 hrs, route po; conditions: in vivo
[9] = Oral bioavailability in Sprague-Dawley rat at 25 mg/kg administered once via gavage measured upto 24 hrs post dose by UPLC-MS/MS analysis; type: ADME, organism-based; conditions: in vivo
PC-3 [10] = test: Induction of H3K4ME2 accumulation in human PC-3 cells at 0.5 to 10 uM incubated for 48 hrs by Western blot analysis; type: functional, cell-based; conditions: dose 0.5-10 µM
[11] = AUC (0 to 24 hrs) in Sprague-Dawley rat at 25 mg/kg, po administered once via gavage measured upto 24 hrs post dose by UPLC-MS/MS analysis; type: ADME, organism-based; parameters: dose 25 mg/kg, time < 24 hrs, route po; conditions: in vivo
PC-3 [12] = test: Induction of cell death in LSD1 knockdown human PC-3 cells assessed as activation of procaspase-9 at 1.25 to 10 uM by Western blot analysis; type: functional, cell-based; conditions: dose 1.25-10 µM
[13] = Tmax in Sprague-Dawley rat at 25 mg/kg, po administered once via gavage measured upto 24 hrs post dose by UPLC-MS/MS analysis; type: ADME, organism-based; conditions: in vivo
[14] = Metabolic stability in Beagle dog hepatocyte assessed as parent compound remaining at 10 uM incubated for 30 mins by LC-MS/MS analysis; type: ADME, cell-based, Canis lupus familiaris; conditions: hepatocytes, read-out: Stability
DU-145 [15] = test: Antitumor activity against human DU-145 cells xenografted in athymic nude mouse assessed as tumor growth inhibition at 100 mg/kg, po administered twice daily and measured upto 60 days by caliper method relative to control; type: functional; conditions: DU-145, 1440 h, time <= 60 day, read-out: TGI
PC-3 [16] = test: Induction of apoptosis in human PC-3 cells at 1.25 to 10 uM incubated for 48 hrs by Western blot analysis; type: functional, cell-based; conditions: dose 1.25-10 µM
Homo sapiens [17] = species on record: Homo sapiens; test: Selectivity ratio of IC50 for human HDAC3 to IC50 for human HDAC6
[18] = Metabolic stability in Sprague-Dawley rat hepatocyte assessed as half life at 10 uM by LC-MS/MS analysis; type: ADME, cell-based; conditions: hepatocytes
PC-3 [19] = test: Downregulation of LSD1 in human PC-3 cells at 1.25 to 10 uM incubated for 48 hrs by Western blot analysis; type: functional, cell-based; conditions: dose 1.25-10 µM
[20] = Metabolic stability in Beagle dog hepatocyte assessed as parent compound remaining at 10 uM incubated for 60 mins by LC-MS/MS analysis; type: ADME, cell-based, Canis lupus familiaris; conditions: hepatocytes, read-out: Stability
[21] = Metabolic stability in Sprague-Dawley rat hepatocyte assessed as parent compound remaining at 10 uM incubated for 30 mins by LC-MS/MS analysis; type: ADME, cell-based; conditions: hepatocytes, read-out: Stability
[22] = Metabolic stability in Beagle dog hepatocyte assessed as parent compound remaining at 10 uM by LC-MS/MS analysis; type: ADME, cell-based, Canis lupus familiaris; conditions: hepatocytes, read-out: Stability
Homo sapiens [23] = species on record: Homo sapiens; test: Selectivity ratio of IC50 for […] IC50 for human full length recombinant MAO-B
[24] = Metabolic stability in Beagle dog hepatocyte assessed as parent compound remaining at 10 uM incubated for 240 mins by LC-MS/MS analysis; type: ADME, cell-based, Canis lupus familiaris; conditions: hepatocytes, read-out: Stability
Homo sapiens [25] = species on record: Homo sapiens; test: Selectivity ratio of IC50 for human HDAC4 to IC50 for human HDAC6
HUVEC = test: Cytotoxicity against HUVEC cells assessed as reduction in cell viability at upto 10 uM incubated for 48 hrs by MTT assay; type: toxicity, cell-based; conditions: human
[26] = Cmax in Sprague-Dawley rat at 25 mg/kg, po administered once via gavage measured upto 24 hrs post dose by UPLC-MS/MS analysis; type: ADME, organism-based; parameters: dose 25 mg/kg, time < 24 hrs, route po; conditions: in vivo
Histone deacetylase 9 = Histone deacetylase 9 (Homo sapiens, UniProt Q9UKV0); test: Inhibition of human HDAC9 using Boc-Lys(trifluoroacetyl)-AMC as flurogenic substrate
Histone deacetylase 9, sequence (Q9UKV0 whole entry): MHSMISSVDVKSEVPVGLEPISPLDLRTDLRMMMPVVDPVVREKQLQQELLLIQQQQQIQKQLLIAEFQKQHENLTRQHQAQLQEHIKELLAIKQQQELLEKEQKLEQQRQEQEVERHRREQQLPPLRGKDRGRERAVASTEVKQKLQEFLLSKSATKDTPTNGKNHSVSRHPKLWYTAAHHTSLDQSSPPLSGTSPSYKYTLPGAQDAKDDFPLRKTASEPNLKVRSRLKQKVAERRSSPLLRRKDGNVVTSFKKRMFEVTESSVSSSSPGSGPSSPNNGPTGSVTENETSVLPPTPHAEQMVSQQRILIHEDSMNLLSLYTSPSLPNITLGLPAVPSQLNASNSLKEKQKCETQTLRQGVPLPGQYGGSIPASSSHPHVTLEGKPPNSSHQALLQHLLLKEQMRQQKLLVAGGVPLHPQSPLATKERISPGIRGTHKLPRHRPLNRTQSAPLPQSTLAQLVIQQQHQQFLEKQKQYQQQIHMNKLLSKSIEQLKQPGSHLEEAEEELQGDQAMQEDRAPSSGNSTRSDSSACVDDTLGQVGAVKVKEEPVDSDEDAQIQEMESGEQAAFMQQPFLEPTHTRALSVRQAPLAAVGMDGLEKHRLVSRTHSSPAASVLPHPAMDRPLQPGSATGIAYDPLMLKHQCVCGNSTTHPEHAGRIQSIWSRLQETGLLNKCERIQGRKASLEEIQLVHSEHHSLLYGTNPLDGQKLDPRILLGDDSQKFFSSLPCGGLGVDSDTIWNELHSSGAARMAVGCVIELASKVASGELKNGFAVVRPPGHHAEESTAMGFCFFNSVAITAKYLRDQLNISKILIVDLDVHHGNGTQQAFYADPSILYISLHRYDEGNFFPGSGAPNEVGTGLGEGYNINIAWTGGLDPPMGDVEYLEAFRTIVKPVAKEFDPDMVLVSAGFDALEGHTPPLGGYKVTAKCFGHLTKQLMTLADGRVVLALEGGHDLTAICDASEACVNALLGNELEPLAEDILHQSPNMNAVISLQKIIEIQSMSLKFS

[27] = Half life in Sprague-Dawley rat at 25 mg/kg, po formulated using SMEDDS administered once via gavage measured upto 24 hrs post dose by UPLC-MS/MS analysis; type: ADME, organism-based; conditions: in vivo
Homo sapiens [28] = species on record: Homo sapiens; test: Selectivity ratio of IC50 for human HDAC9 to IC50 for human HDAC6
Homo sapiens [29] = species on record: Homo sapiens; test: Selectivity ratio of IC50 for human HDAC10 to IC50 for human HDAC6
DU-145 [30] = test: Antiproliferative activity against human DU-145 cells assessed as cell growth inhibition incubated for 48 hrs by MTT assay; type: functional
PC-3 [31] = test: Antiproliferative activity against human PC-3 cells assessed as cell growth inhibition incubated for 48 hrs by MTT assay; type: functional
[32] = target: T1, Amine oxidase [flavin-containing] B (Homo sapiens, UniProt P27338); test: Inhibition of human full length recombinant MAO-B expressed in insect cells using kynuramine as substrate; type: cell-based
T1 sequence (P27338 whole entry): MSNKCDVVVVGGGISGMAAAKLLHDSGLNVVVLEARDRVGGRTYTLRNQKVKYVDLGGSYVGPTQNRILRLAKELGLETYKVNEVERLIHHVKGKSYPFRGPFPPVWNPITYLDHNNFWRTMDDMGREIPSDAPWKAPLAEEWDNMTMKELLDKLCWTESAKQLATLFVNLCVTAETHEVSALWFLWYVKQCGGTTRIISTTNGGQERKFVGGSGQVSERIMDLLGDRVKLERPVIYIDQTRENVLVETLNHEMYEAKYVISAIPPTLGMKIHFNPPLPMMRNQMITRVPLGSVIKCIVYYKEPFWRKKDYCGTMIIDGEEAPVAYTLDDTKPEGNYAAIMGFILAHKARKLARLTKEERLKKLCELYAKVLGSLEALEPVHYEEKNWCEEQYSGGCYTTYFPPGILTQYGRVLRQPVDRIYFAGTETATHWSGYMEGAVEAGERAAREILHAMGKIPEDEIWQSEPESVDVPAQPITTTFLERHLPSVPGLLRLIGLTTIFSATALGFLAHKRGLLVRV

Which results are given for `C#CCN(C)Cc1cccc(NC(=O)CCCCCCC(=O)NO)c1`?
remaining at 2 h, 10 µM [1]: 95.5%; inhibition [2]: Active; remaining at 10 µM [3]: 100%; half-life at 10 µM [4]: 3.61 h; Activity (PC-3 [5]): Active; Ratio IC50 (Homo sapiens [6]): > 500; remaining at 4 h, 10 µM [7]: 15.9%; AUC(0-inf) [8]: 596 ng·h/mL; bioavailability [9]: 11.8%; Activity (PC-3 [10]): Active; AUC(0-t) at 24 h [11]: 108 ng·h/mL; Activity (PC-3 [12]): Active; Tmax [13]: 0.5 h; remaining at 0.5 h, 10 µM [14]: 91.6%; inhibition in vivo at 100 mg/kg (DU-145 [15]): 73.6%; Activity (PC-3 [16]): Active; Ratio IC50 (Homo sapiens [17]): 5.8; half-life at 10 µM [18]: 1.56 h; Activity (PC-3 [19]): Active; remaining at 1 h, 10 µM [20]: 81.2%; remaining at 0.5 h, 10 µM [21]: 72.2%; remaining at 10 µM [22]: 100%; Ratio IC50 (Homo sapiens [23]): 84; remaining at 4 h, 10 µM [24]: 46.6%; Ratio IC50 (Homo sapiens [25]): > 500; Activity (HUVEC): Non-Toxic; Cmax [26]: 74.1 ng/mL; IC50 (Histone deacetylase 9): > 10000 nM; half-life [27]: 4.3 h; Ratio IC50 (Homo sapiens [28]): > 500; Ratio IC50 (Homo sapiens [29]): 18.7; GI50 (DU-145 [30]): 420 nM; GI50 (PC-3 [31]): 330 nM; IC50 [32]: 67000 nM
